Test results taken from article PMC10892719 (Pharmaceutics, 2024).

Tested on: SH-SY5Y cells
Experiment: Neuroprotection against Aβ1-42-induced toxicity, MTT
Type: cell-based, human
Conditions: Aβ1-42 1 µM, 24 h, optimized concentration of each compound
Procedure: Cell viability, following treatment with the compounds, was determined using the colorimetric MTT (3-(4,5-dimethylthiazol-2-yl)-2,5-diphenyltetrazolium bromide) assay. The tested compounds (5a1-3, 5b1-3, 5c1-3) were dissolved in DMSO to produce stock solutions of 25 mM and stored at −20 °C. A concentration screening was performed for 0.5 µM to 20 µM final concentrations to choose the highest nontoxic concentration. SH-SY5Y human neuroblastoma cell line (ATCC-CRL-2266) was cultured in Dulbecco’s modified Eagle’s medium (DMEM) (Gibco-Invitrogen, Life Technologies Ltd., Waltham, MA, USA) with heat-inactivated fetal calf serum (10%), penicillin (50 U/mL) and streptomycin (50 µg/mL) at 37 °C with 5% CO2. Cells were plated at 0.15 × 10^6 cells/mL one day prior to the start of the experiment. The cells were then incubated with the appropriate concentration of the compounds for 24 h. After the incubation period, the cells were washed once with PBS and incubated with 200 µL MTT (0.5 mg/mL) for 2 h at 37 °C with 5% CO2. During this period, cellular dehydrogenase successfully metabolized MTT into formazan, which was then solubilized using 200 µL of 0.04 M HCl/isopropanol. Absorbance was measured at 570 nm.
To test whether the compounds have a protective effect against toxicity induced by Aβ1-42 or iron/ascorbate, the cells were pre-incubated for 1 h with each compound, followed by the addition of Aβ1-42 or iron/ascorbate and incubation for an additional 24 h. Aβ1-42 (Bachem, Torrance, CA, USA) was prepared in sterile water to produce a stock solution of 443 µM and added to the cells at a final concentration of 1 µM. Ferrous sulfate and L-ascorbic acid (Sigma Chemical Co, St. Louis, MO, USA), prepared in sterile water, were added to the medium together at a final concentration of 5 mM and 2.5 mM, respectively. For this assay, the optimal concentration of each compound was used to prevent cellular demise induced by Aβ1-42 or iron/ascorbate. Compound 5a1 was added to the medium at a 1 µM final concentration; compounds 5a2, 5a3, 5b1, 5b2 and 5c2 were added to the medium at a 2.5 µM final concentration; compounds 5c1 and 5c3 were added to the medium at a 5 µM final concentration; and compound 5b3 was added to the medium at a 10 µM final concentration. […] Controls were employed for each plate using untreated cells and Aβ1-42 or iron/ascorbate only. Cell reduction ability was normalized to the untreated condition. All data are expressed as mean ± SEM of at least three independent experiments performed in duplicate. Statistical analyses were performed for normality assessment using Shapiro–Wilk’s test followed by the Kruskal–Wallis test considering that normality was not verified. Post hoc analysis was performed using uncorrected Dunn’s test. A p value < 0.05 was considered statistically significant.
Figure 4 Neuroprotective effect of RIV-IND compounds against cellular toxicity induced by Aβ1-42 measured by MTT reduction ability on SH-SY5Y cells pretreated with […] for one hour, followed by a 24 h incubation with the optimized concentration of each compound. Results are expressed relatively to untreated cells, with the mean ± standard error of the mean (SEM) derived from three to seven independent experiments. * p < 0.05; ** p < 0.01; *** p < 0.001; **** p < 0.0001 compared to untreated cells. # p < 0.05 compared to Aβ1-42-treated cells. (The dot line indicates the decrease in cellular viability induced by Aβ).

SMILES	neuroprotective effect against toxicity induced by Aβ1-42
CCN(C)C(=O)Oc1cccc(NC(=O)c2cc3cccc(O)c3[nH]2)c1 [Compound 5a3, 3-(7-Hydroxy-1H-indole-2-carboxamido)phenyl ethyl(methyl)carbamate]	also present neuroprotection
CCN(C)C(=O)Oc1cccc(CNC(=O)c2cc3ccccc3[nH]2)c1 [Compound 5b1, 3-((1H-indole-2-carboxamido)methyl)phenyl ethylmethylcarbamate]	able to rescue Aβ1-42-induced toxicity to levels that were not significantly different from untreated cells
